Data as given in US9850287B2, “Means and methods for breaking noncovalent binding interactions between molecules” (Het Nederlands Kanker Instituut, priority 2005, dated 2017).

Target: T1, HLA-A2.1 multimers (Homo sapiens, UniProt P04439, D140Y/D185E/D98H/E176V/E277Q/G131W/G231S/I119V/I121R/I166T/I218V/N151K/N90K/P208A/P217A/Q86G/Q94H/R138H/R169H)
T1 construct: made in house
Type: physicochemical

Substance	effect of UV exposure on amount of MHC complex recovered
GIL*FVFTL (SEQ ID NO:3) [G4*]	substantial reduction in the amount of MHC complex recovered
GILGFVF*L (SEQ ID NO:4) [T8*]	substantial reduction in the amount of MHC complex recovered
